{"source": "patent US20160368868A1", "about": "“N-(1-CYANO-2-HYDROXY-1-METHYL-ETHYL)-4-(TRIFLUOROMETHYLSULFANYL)BENZAMIDE DERIVATIVES FOR USE AS NEMATOCIDAL DRUGS” (UNIVERSITÄT ZÜRICH Prorektorat MNW, priority 2013, published 2016)", "key": {"Dirofilaria immitis": {"system": "Dirofilaria immitis", "assay": "Activity in vitro against Dirofilaria immitis microfilariae (motility)", "format": "cell-based", "conditions": "at up to 10 μg/mL; efficacy in percent reduced motility of microfilariae; 48 hours at 26° C."}, "MRC-5": {"system": "MRC-5", "assay": "Resazurin fluorometric cell viability assay, MRC-5", "conditions": "Homo sapiens, MRC5, 48 h, read-out: IC50 in MRC-5", "description": "(§1) The toxicity towards a human cervical cancer HeLa and a non-cancerous (MRC-5) cell line was determined using the fluorometric cell viability assay (Resazurin) (Ahmed et al., J. Immunol. Methods 1994, 170, 211.), results of which are shown in Table 1.\n(§2) Human cervical carcinoma cells (HeLa) cells were cultured in DMEM (Gibco) supplemented with 5% fetal calf serum (FCS, Gibco), 100 U/ml penicillin, 100 μg/ml streptomycin at 37° C. and 5% CO2. The normal human fetal lung fibroblast MRC-5 cell line was maintained in F-10 medium (Gibco) supplemented with 10% FCS (Gibco), penicillin (100 U/ml), and streptomycin (100 μg/ml). Cytotoxicity studies were performed on two different cell lines, namely HeLa, and MRC-5, by a fluorometric cell viability assay using Resazurin (Promocell GmbH). Briefly, one day before treatment, cells were seeded in triplicates in 96-well plates at a density of 4×10^3 cells/well for HeLa and 7×10^3 for MRC-5 in 1041.1 growth medium. Upon treating cells with increasing concentrations of Fc-PZQ derivatives for 48h, the medium was removed, and 100 μl complete medium containing Resazurin (0.2 mg/ml final concentration) were added. After 4h of incubation at 37° C., fluorescence of the highly red fluorescent product Resorufin was quantified at 590 nm emission with 540 nm excitation wavelength in a SpectraMax M5 microplate Reader."}, "HeLa": {"system": "HeLa", "assay": "Resazurin fluorometric cell viability assay, HeLa", "conditions": "Homo sapiens, 48 h, read-out: IC50 in HeLa", "description": "as §1, §2"}, "H. contortus": {"system": "H. contortus", "assay": "Larval development assay (LDA)", "conditions": "for inhibition of the development of H. contortus larvae: at concentrations between 100 μM and 25 μM; for LD50 against H. Contortus: larval development assay, L3 counted after 7 days"}}}
{"compound": "CC(C#N)(CO)NC(=O)c1ccc(SC(F)(F)F)cc1", "note": "(centres unmarked) [drawing 36]", "values": [{"measurement": "Activity against Dirofilaria immitis", "setting": "Dirofilaria immitis", "result": "EC20 at up to 10 μg/mL"}]}
{"compound": "CC(C#N)(COC(=O)c1ccccc1)NC(=O)c1ccc(SC(F)(F)F)cc1", "note": "(centres unmarked)", "values": [{"measurement": "Activity against Dirofilaria immitis", "setting": "Dirofilaria immitis", "result": "EC6 at up to 10 μg/mL"}]}
{"compound": "CC(C#N)(CO)NC(=O)c1ccc(I)cc1", "note": "(centres unmarked)", "values": [{"measurement": "Activity against Dirofilaria immitis", "setting": "Dirofilaria immitis", "result": "EC15 at up to 10 μg/mL"}]}
{"compound": "C#CC(=O)OCC(C)(C#N)NC(=O)c1ccc(SC(F)(F)F)cc1", "note": "(centres unmarked)", "values": [{"measurement": "Activity against Dirofilaria immitis", "setting": "Dirofilaria immitis", "result": "EC15 at 0-10 μg/mL"}]}
{"compound": "CC(C#N)(CO)NC(=O)c1ccc(SC(F)(F)F)cc1", "note": "(centres unmarked) [ahpOH, N-(2-cyano-1-hydroxypropan-2-yl)-4-((trifluoromethyl)thio)benzamide]", "values": [{"measurement": "IC50", "setting": "MRC-5", "result": "> 100", "unit": "µM"}, {"measurement": "IC50", "setting": "HeLa", "result": "> 100", "unit": "µM"}, {"measurement": "inhibition of the development of H. contortus larvae", "setting": "H. contortus", "result": "severely and reproducibly inhibited"}, {"measurement": "LD50 against H. Contortus", "setting": "H. contortus", "result": 173, "unit": "nM"}]}
{"compound": "C[C@](C#N)(COc1cc(C#N)ccc1C(F)(F)F)NC(=O)c1ccc(SC(F)(F)F)cc1", "note": "[Zolvix, Monepantel, reference compound]", "values": [{"measurement": "IC50", "setting": "MRC-5", "result": 63.9, "unit": "µM"}, {"measurement": "IC50", "setting": "HeLa", "result": 34.1, "unit": "µM"}, {"measurement": "LD50 against H. Contortus", "setting": "H. contortus", "result": "<41", "unit": "nM"}]}
{"compound": "CC(C#N)(CO)NC(=O)c1ccc([S+]([O-])C(F)(F)F)cc1", "note": "(centres unmarked)", "values": [{"measurement": "Activity against Dirofilaria immitis", "setting": "Dirofilaria immitis", "result": "EC5 at up to 10 μg/mL"}]}
{"compound": "CC(=O)OCC(C)(C#N)NC(=O)c1ccc(SC(F)(F)F)cc1", "note": "(centres unmarked) [ahpOH1, 2-Cyano-2-(4-((trifluoromethyl)thio)benzamido)propyl acetate]", "values": [{"measurement": "IC50", "setting": "MRC-5", "result": "> 100", "unit": "µM"}, {"measurement": "IC50", "setting": "HeLa", "result": "> 100", "unit": "µM"}, {"measurement": "inhibition of the development of H. contortus larvae", "setting": "H. contortus", "result": "severely and reproducibly inhibited"}, {"measurement": "LD50 against H. Contortus", "setting": "H. contortus", "result": 550, "unit": "nM"}]}
{"compound": "CSc1ccc(C(=O)NC(C)(C#N)CO)cc1", "note": "(centres unmarked)", "values": [{"measurement": "Activity against Dirofilaria immitis", "setting": "Dirofilaria immitis", "result": "EC15 at up to 10 μg/mL"}]}
{"compound": "CC(C#N)(CO)NC(=O)c1ccc(C(F)(F)F)cc1", "note": "(centres unmarked)", "values": [{"measurement": "Activity against Dirofilaria immitis", "setting": "Dirofilaria immitis", "result": "EC25 at up to 10 μg/mL"}]}
{"compound": "CC(C#N)(CO)NC(=O)c1ccc(S(=O)(=O)C(F)(F)F)cc1", "note": "(centres unmarked)", "values": [{"measurement": "Activity against Dirofilaria immitis", "setting": "Dirofilaria immitis", "result": "EC15 at up to 10 μg/mL"}]}
{"compound": "CC(C#N)(CO)NC(=O)c1ccc(F)cc1", "note": "(centres unmarked)", "values": [{"measurement": "Activity against Dirofilaria immitis", "setting": "Dirofilaria immitis", "result": "EC20 at up to 10 μg/mL"}]}
